Where “and” joins values, the source holds several entries; their conditions need not be identical. Equal entries are not always repeated.
What was measured:
[1] = tested on: intraperitoneal eosinophils; test: Activity on Mouse Intraperitoneal Hypereosinophilic Model (Ascaris suum extract sensitization); format: in vivo, BALB/c male mice; conditions: peroral, once a day, 10 administrations
Method: BALB/c male mice (body weight=ca. 25 g), divided in groups each consisting of five animals, were sensitized by intraperitoneal injection of physiological saline (0.11 mL) containing 0.1 mg of Ascaris suum extract. Seven days later, the same treatment was conducted; three days later, the animals were bled to death and injected intraperitoneally with 3 mL of physiological saline containing 1% dipotassium ethylenediaminetetraacetate (EDTA) and massaged on the abdominal part for about 30 sec. The abdominal part was incised to collect the intraperitoneal fluid, which was centrifuged at 130×g for 10 min. Fetal bovine serum (500 μl) containing 1% EDTA was added to the pellet to prepare a cell suspension. Part of the cell suspension was smeared on a glass slide with a centrifugal smearing device and subjected to Difquick staining. Thereafter, the total white blood cell (WBC) count and the eosinophil count were taken to determine the percentage of eosinophils in the total WBC. The total number of WBCs in the cell suspension was measured with an automatic hemocytometer. Multiplying the percentage of eosinophils in the total WBC by the total number of WBCs provided the number of eosinophils in the cell suspension. […] The mice neither sensitized nor administered the test compounds (untreated group), as well as the mice that were sensitized but not administered the test compounds (control group) were similarly administered 5% aqueous gum arabic perorally. Inhibition of the Increase in Eosinophils (%)={1-(test compound administered group-untreated group)/(control group-untreated group)}×100

eosinophils in BALF = test: Activity on Model for the Increase of Eosinophils in the Rat Bronchial Alveolar Lavage Fluid (Sephadex G200 sensitization); format: in vivo, Sd male rats; conditions: peroral, once a day, 10 administrations
Method: Sd male rats (8 wk old), divided in groups each consisting of five animals, were sensitized by an intravenous injection into tail vein of Sephadex G200 suspension (1 mL), that had been prepared to give a concentration of 0.75 mg/ml physiological saline. Seven days later, the same treatment was conducted; three days later, each rat was fitted with an tracheal cannula under anesthetization with pentobarbital and 7 mL of physiological saline containing 1% EDTA was injected via the cannula and recovered; this procedure was repeated three times to collect the BALF, which were centrifuged at 130×g for 10 min. Physiological saline (200 μl) containing 1% EDTA was added to the pellet to prepare a cell suspension. Part of the cell suspension was resuspended in fetal bovine serum containing 1% EDTA, smeared on a glass slide with a centrifugal smearing device and subjected to Difquick staining. Thereafter, the total WBC count and the eosinophil count were taken to determine the percentage of eosinophils in the total WBC. The total number of WBCs in the cell suspension was measured with a hemocytometer after staining with a Turck solution. Multiplying the percentage of eosinophils in the total WBC by the total number of WBCs provided the number of eosinophils in the cell suspension.
Each of the test compounds was suspended in 5% aqueous gum arabic and administered perorally to mice immediately after the initial sensitization on a once-a-day basis for a total of 10 administrations (test compound-treated group). The mice neither sensitized nor administered the test compounds (untreated group), as well as the mice that were sensitized but not administered the test compounds (control group) were similarly administered 5% aqueous gum arabic perorally.
Inhibition of the Increase of Eosinophils (%)={1-(test compound
administered group-untreated group)/(control group-untreated

[2] = Experiment on Acute Toxicity (oral, survival until 7th day); parameters: species or system ICR male mice; conditions: mouse, in vivo, 1000 mg/kg, peroral, until the 7th day of the administration, read-out: No. of Survivals (converted)
From the text: ICR male mice (body weight=ca. 35 g) weighing about 30 g were divided in groups each consisting of one or three animals and administered perorally each of the test compounds as suspended in 5% aqueous gum arabic. The mice were then examined for their survival until the 7th day of the administration.

## OC1CCn2c(CCc3ccccc3)nc3cccc1c32 (single isomer, unassigned; (+)) [Example 11, (+)-5,6-dihydro-2-(2-phenylethyl)-4H-imidazo[4,5,1-ij]quinolin-6-ol]
[1]; 30 mg/kg/day
  Inhibition of the Increase of Eosinophils (%): 43%

## O=C(O)c1ccccc1COC1CCn2c(CCc3ccccc3)nc3cccc1c32 (single isomer, unassigned; (+)) [Example 24, (+)-6-(2-carboxyphenyl)methoxy-5,6-dihydro-2-(2-phenylethyl)-4H-imidazo[4,5,1-ij]quinoline]
[1]; 30 mg/kg/day
  Inhibition of the Increase of Eosinophils (%): 45%

## O=C1CCn2c(CCc3ccccc3)nc3cccc1c32 [Example 1, 4,5-dihydro-2-(2-phenylethyl)-6H-imidazo[4,5,1-ij]quinolin-6-one]
[1]; 30 mg/kg/day
  Inhibition of the Increase of Eosinophils (%): 48%
[1]; 100 mg/kg/day
  Inhibition of the Increase of Eosinophils (%): 68%
Eosinophils in BALF; 30 mg/kg/day
  Inhibition of the Increase of Eosinophils in BALF (%): 68%
[2]
  survival at 168 h: 100%

## OC1CCn2c(CCc3ccccc3)nc3cccc1c32 (centres unmarked) [Example 4, 5,6-dihydro-2-(2-phenylethyl)-4H-imidazo[4,5,1-ij]quinolin-6-ol]
[1]; 30 mg/kg/day
  Inhibition of the Increase of Eosinophils (%): 67%
[1]; 100 mg/kg/day
  Inhibition of the Increase of Eosinophils (%): 57%
Eosinophils in BALF; 30 mg/kg/day
  Inhibition of the Increase of Eosinophils in BALF (%): 90%
[2]
  survival at 168 h: 100%

## c1ccc(CCc2nc3cccc4c3n2CCC4)cc1 [Example 13, 5,6-dihydro-2-(2-phenylethyl)-4H-imidazo[4,5,1-ij]quinoline]
[1]; 30 mg/kg/day
  Inhibition of the Increase of Eosinophils (%): 49%
[1]; 100 mg/kg/day
  Inhibition of the Increase of Eosinophils (%): 64%
[2]
  survival at 168 h: 100%

## Cl.NC1CCn2c(CCc3ccccc3)nc3cccc1c32 (centres unmarked) [Example 18, 5,6-dihydro-2-(2-phenylethyl)-4H-imidazo[4,5,1-ij]quinolin-6-amine hydrochloride]
[1]; 30 mg/kg/day
  Inhibition of the Increase of Eosinophils (%): 53%

## CON=C1CCn2c(CCc3ccccc3)nc3cccc1c32 [Example 35, 5,6-dihydro-6-methoxyimino-2-(2-phenylethyl)-4H-imidazo[4,5,1-ij]quinoline]
Eosinophils in BALF; 30 mg/kg/day
  Inhibition of the Increase of Eosinophils in BALF (%): 73%
[2]
  survival at 168 h: 100%

## O=C(O)c1ccccc1C(=O)OC1CCn2c(CCc3ccccc3)nc3cccc1c32 (centres unmarked) [Example 41, 5,6-dihydro-6-(o-carboxybenzoyloxy)-2-(2-phenylethyl)-4H-imidazo[4,5,1-ij]quinoline]
[2]
  survival at 168 h: 100%

## O=C(O)c1cccc(COC2CCn3c(CCc4ccccc4)nc4cccc2c43)c1C(=O)O (centres unmarked) [Example 64, 6-(2,3-dicarboxyphenyl)methoxy-5,6-dihydro-2-(2-phenylethyl)-4H-imidazo[4,5,1-ij]quinoline]
[1]; 30 mg/kg/day
  Inhibition of the Increase of Eosinophils (%): 57%

## CC(=O)OCC(=O)[C@@]1(O)CC[C@H]2[C@@H]3CCC4=CC(=O)C=C[C@]4(C)[C@H]3[C@@H](O)C[C@@]21C [Prednisolone Acetate, 11β, 17α, 21-trihydroxypregna-1,4-diene-3,20-dione 21-acetate, reference compound]
[1]; 10 mg/kg/day
  Inhibition of the Increase of Eosinophils (%): 65%
Eosinophils in BALF; 10 mg/kg/day
  Inhibition of the Increase of Eosinophils in BALF (%): 76% and 69%
